Laboratory results as given in US8389482B2, “Short peptides useful for treatment of ischemia/reperfusion injury and other tissue damage conditions associated with nitric oxide and its reactive species” (New York University, priority 2007, dated 2013).
Residues, ends and D or L forms follow the SMILES beside them.

Legend:
[1] = test system: peroxynitrite (ONOO)-nitrated albumin; assay: In vitro denitration of peroxynitrite-nitrated albumin, dot-immunoblotting with antibodies against 3-NT; assay type: biochemical; conditions: 20 μM peptide, 10 mM Tris HCl pH 7.2, 25° C., after 10 minutes
Source text: Several groups have previously reported an in vivo denitration phenomenon (e.g., Kamisaki et al (1998) Proc Natl Acad Sci USA 95: 11584-11589; Aulak et al (2004) Am J Physiol Heart Circ Physiol 286: H30-H38). However, they tried to isolate denitration activity using pure 3-NT and failed. The present inventors have hypothesized that the stability of pure 3-NT is much higher than the stability of 3-NT incorporated in a protein and used ONOO-nitrated albumin as the substrate for detecting denitration activity.
To test the ability of L-CEFH peptide (Cys-Glu-Phe-His; SEQ ID NO: 1) to mediate 3-NT denitration in vitro, 20 μM CEFH peptide solution containing 10 mM Tris HCl pH 7.2 was added to albumin previously nitrated by peroxynitrite (ONOO^−). Denitration of the peroxynitrite (ONOO)-nitrated albumin following 0, 3, or 10 minutes of incubation with L-CEFH peptide was then visualized by dot-immunoblotting with antibodies against 3-NT.

HeLa cells = assay: HeLa cell survival upon NO/ONOO- exposure, MTS-based assay; conditions: 20 μM peptide vs 5 mM cysteine
Description: The ability of the L-CEFH peptide (Cys-Glu-Phe-His; SEQ ID NO: 1) to reduce cell death caused by nitric oxide (NO) and peroxynitrite (ONOO^−) was tested in cell culture. Following treatment with NO/ONOO^−, HeLa cells were incubated with either a control buffer, 5 mM cysteine, or 20 μM L-CEFH peptide for 40 minutes. The percentage of cells surviving was determined by a MTS-based assay (available from Promega, Madison, Wis.).

[2] = test system: 3-nitrotyrosine (3-NT) in myocardial tissue; assay: 3-NT accumulation in heart tissue (area at risk) in a rat model of MI, dot-immunoblotting with anti-3-NT antibodies; assay type: in vivo; conditions: 0.7 mg/kg i.v. 5 minutes after beginning of reperfusion
Description: (§1) Myocardial ischemia (MI) was produced in anaesthetized adult male Wistar rats (300-350 grams) under controlled ventilation. After thoracotomy at the fourth intercostal space, the heart was exteriorized and a 6-0 silk ligature was passed under the left coronary artery with a needle. After 30 minutes of MI, the ligature was released and the myocardium was reperfused for 1 hour. Rats were randomized 5 minutes after the beginning of reperfusion to receive either vehicle (control, n=6) or L-CEFH peptide (0.7 mg/kg; n=9) i.v. The extent of MI/R injury, or infarct size, was determined by calculating the ratio of the area of necrosis (NA) to the area at risk (AR). Accumulation of 3-NT in the tested heart tissue corresponding to the area at risk was analyzed by Western dot-immunoblotting of total protein (extracted from the area at risk) with antibodies against 3-NT.

[3] = test system: rat model of myocardial infarction; assay: Myocardial ischemia-reperfusion (MI/R) injury in a rat model of myocardial infarction, infarct size NA/AR; assay type: in vivo
Description: as §1
Rat model of myocardial infarction was generated as disclosed in Example 3, above. 0, 0.02, 0.05, 0.1, 0.14, 0.35, and 0.7 mg/kg of D-CEFH peptide (N≦4 for each concentration) were administered i.v. The extent of MI/R injury, or infarct size, was determined by calculating the ratio of the area of necrosis (NA) to the area at risk (AR).

[4] = test system: myocardial ischemia (MI) in rats; conditions: cited from earlier work
myocardial tissue 3-NT = conditions: cited from earlier work
[5] = 5 mg/kg i.v., infused 1 minute prior to ischemia

N[C@@H](CS)C(=O)N[C@@H](CCC(=O)O)C(=O)N[C@@H](Cc1ccccc1)C(=O)N[C@@H](Cc1c[nH]cn1)C(=O)O [L-CEFH, Cys-Glu-Phe-His] (H-CEFH-OH; N-terminus and C-terminus assumed)
denitration of peroxynitrite (ONOO)-nitrated albumin [1]: > 90% | times lower concentration than cysteine giving equivalent efficacy (HeLa cells): 250 times | reduction of 3-NT accumulation as compared to the control [2]: about 70% | decrease in the infarct size (NA/AR) as compared to the control ([3]; 0.7 mg/kg i.v. 5 minutes after beginning of reperfusion, 30 min MI, 1 hour reperfusion): 3-5 fold | dose producing maximal effect in preventing MI/R injury ([3]; i.v., rat model of MI): 0.7 mg/kg

COC(=O)[C@@H](N)CCCNC(=N)N[N+](=O)[O-] [L-NAME]
infarct size ([4]; 50 mg/kg i.p.): reduction | 3-NT (myocardial tissue 3-NT; 50 mg/kg i.p.): reduction

O=NO [sodium nitrite]
I/R infarct size compared with saline treated controls [4, 5]: significant expansion | myocardial tissue 3-NT accumulation compared with saline treated controls (myocardial tissue 3-NT; [5]): significant expansion

Cys-Glu-Phe-His [D-CEFH]
fold lower concentration than L-CEFH for the same effect in preventing MI/R injury ([3]; 0.05 mg/kg vs 0.7 mg/kg, i.v.): 14 fold | activity in preventing MI/R injury as compared to L-CEFH ([3]; i.v., rat model of MI): superior activity | dose producing maximal effect in preventing MI/R injury ([3]; i.v., rat model of MI): 0.1 mg/kg | dose producing the same effect as the maximal effect of L-CEFH (0.7 mg/kg) ([3]; i.v., rat model of MI): 0.05 mg/kg
